Experimental data from BindingDB's records for doi:10.1074/jbc.274.19.13370 (SynthÉLabo, 1999).
“And” between values parts separate entries of the source, which are not always exact repeats. Identical values can stand only once.

Target: Gamma-aminobutyric acid receptor subunit alpha-5 (Rattus norvegicus, UniProt P19969)
Sequence (P19969 whole entry): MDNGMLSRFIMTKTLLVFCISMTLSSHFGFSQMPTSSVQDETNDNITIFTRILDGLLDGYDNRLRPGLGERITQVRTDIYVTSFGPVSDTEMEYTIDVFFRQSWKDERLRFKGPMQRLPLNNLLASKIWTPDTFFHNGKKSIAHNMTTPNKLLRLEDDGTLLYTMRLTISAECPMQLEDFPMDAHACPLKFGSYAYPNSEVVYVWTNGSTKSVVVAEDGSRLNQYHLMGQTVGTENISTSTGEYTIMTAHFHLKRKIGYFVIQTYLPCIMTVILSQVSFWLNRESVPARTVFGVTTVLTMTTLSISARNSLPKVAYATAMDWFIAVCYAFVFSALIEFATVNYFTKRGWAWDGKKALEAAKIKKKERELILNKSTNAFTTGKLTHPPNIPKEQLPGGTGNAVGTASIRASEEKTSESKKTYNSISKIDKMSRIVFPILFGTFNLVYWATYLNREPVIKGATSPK

## Cc1nnc2ccc(-c3cccc(C(F)(F)F)c3)nn12
  Ki: 333 nM and 127 nM and 157 nM and 447 nM
